According to ChEMBL document CHEMBL2203118, “Ethyl 2,4,6-trihydroxybenzoate is an agonistic ligand for liver X receptor that induces cholesterol efflux from macrophages without affecting lipid accumulation in HepG2 cells” (Bioorg Med Chem Lett, 2012):

Experiments:
Details in all cases: hepg2, 1 µM
HepG2 [1] = test: Upregulation of SCD1 gene expression in human HepG2 cells at 1 uM by qPCR analysis; type: ADME, cell-based
HepG2 [2] = test: Upregulation of FAS gene expression in human HepG2 cells at 1 uM by qPCR analysis; type: ADME, cell-based
HepG2 [3] = test: Upregulation of SREBP-1 gene expression in human HepG2 cells at 1 uM by immunoblot analysis; type: ADME, cell-based
HepG2 [4] = test: Induction of lipid accumulation in human HepG2 cells assessed as increase in cellular triglyceride level at 1 uM by Oil Red O staining relative to control; type: cell-based
HepG2 [5] = test: Induction of lipid accumulation in human HepG2 cells assessed as cellular triglyceride concentration at 1 uM; type: cell-based
HepG2 [6] = test: Upregulation of SREBP-1 gene expression in human HepG2 cells at 1 uM by qPCR analysis; type: ADME, cell-based

Measured: Activity

O=S(=O)(c1ccccc1)N(CC(F)(F)F)c1ccc(C(O)(C(F)(F)F)C(F)(F)F)cc1 [T091317]
Toxic: all assays above
